According to US20230365568A1, “PLK1 POLO BOX DOMAIN INHIBITORS AND METHOD OF TREATING CANCER” (The United States of America,as represented by the …, priority 2020, published 2023):

Assays:
[1] = Microsomal metabolic stability, rat liver microsomes (RLM); conditions: rat liver microsomes
[2] = Aqueous solubility; conditions: aqueous solubility

t1/2 (min, RLM) [1] | Solub. [2] | Solub. (μg/ml) [2] | Molecule
>30 min | 34 µg/mL |  | CS(=O)(=O)NCCCn1c(=O)c2cc(F)ccc2n2c(=S)[nH]nc12 [compound 76]
 |  | Insol. | CCCn1c(=O)c2ccccc2n2c(=S)n(CN(C)C3CC3)nc12 [compound 35]
>30 min | 29.6 µg/mL |  | O=C(NCCCn1c(=O)c2cc(F)ccc2n2c(=S)[nH]nc12)C1CCCNC1 (stereo not shown) [compound 113]
>30 min | >54 µg/mL |  | CN1CCN(CCn2c(=O)c3cc(F)ccc3n3c(=S)[nH]nc23)CC1 [compound 91]
 | 8.6 µg/mL |  | CC(C)OCCCn1c(=O)c2cc(Cl)ccc2n2c(=S)[nH]nc12 [compound 56]
 | 19.5 µg/mL |  | CC(C)n1c(=O)c2ccccc2n2c(=S)[nH]nc12 [compound 26]
>30 min | >39 µg/mL |  | CCn1c(=O)c2cc(F)ccc2n2c(=S)[nH]nc12 [compound 63]
>30 min | >41 µg/mL |  | NCCn1c(=O)c2cc(F)ccc2n2c(=S)[nH]nc12 [compound 67]
25.1 min | 20.4 µg/mL |  | CC(C)(C)OC(=O)CC[C@@H](NC(=O)OC(C)(C)C)C(=O)NCCCn1c(=O)c2cc(F)ccc2n2c(=S)[nH]nc12 [compound 102]
>30 min | 17.8 µg/mL |  | CN1CCCC1CCn1c(=O)c2cc(F)ccc2n2c(=S)[nH]nc12 (stereo not shown) [compound 87]
>30 min | >59 µg/mL |  | CCOP(=O)(CCn1c(=O)c2cc(F)ccc2n2c(=S)[nH]nc12)OCC [compound 78]
>30 min | 1.1 µg/mL |  | CC(C)(C)[C@H]1CC[C@H](C(=O)NCCCn2c(=O)c3cc(F)ccc3n3c(=S)[nH]nc23)CC1 [compound 109]
26.3 min | 20.5 µg/mL |  | CC(C)(C)OC(=O)N1CCN(CCn2c(=O)c3cc(F)ccc3n3c(=S)[nH]nc23)CC1 [compound 92]
>30 min | >47 µg/mL |  | CC(=O)NCCn1c(=O)c2cc(F)ccc2n2c(=S)[nH]nc12 [compound 72]
 | 8.1 µg/mL |  | CC(C)NC(=O)CCn1c(=O)c2cc(Cl)ccc2n2c(=S)[nH]nc12 [compound 57]
10.7 min | 11.0 µg/mL |  | Cc1nnc2n(CCc3ccccc3)c(=O)c3cc(F)ccc3n12 [compound 17]
>30 min | >60 µg/mL |  | O=C(NCCCn1c(=O)c2cc(F)ccc2n2c(=S)[nH]nc12)C1CCNCC1 [compound 114]
>30 min | >60 µg/mL |  | O=C(NCCCn1c(=O)c2cc(F)ccc2n2c(=S)[nH]nc12)C1CCCCN1 (stereo not shown) [compound 112]
 | 8.7 µg/mL |  | CCCn1c(=O)c2ccccc2n2c(=S)n(CN(CC)CC(C)C)nc12 [compound 38]
 | 30.8 µg/mL |  | CC(C)CNC(=O)CCn1c(=O)c2ccccc2n2c(=S)[nH]nc12 [compound 32]
 | >51 µg/mL |  | O=c1c2cc(F)ccc2n2c(=S)[nH]nc2n1CCP(=O)(O)O [compound 77]
 | <1 µg/mL |  | O=c1c2ccccc2n2c(=O)[nH]nc2n1CCc1ccccc1 [compound 15]

Molecule | t1/2 (min, RLM) [1] | Solub. [2] | Solub. (μg/ml) [2]
O=C(Cc1ccc(F)cc1)NCCCn1c(=O)c2cc(F)ccc2n2c(=S)[nH]nc12 [compound 123, N-(3-(7-fluoro-5-oxo-1-thioxo-1,2-dihydro-[1,2,4]triazolo[4,3-a]quinazolin-4(5H)-yl)propyl)-2-(4-fluorophenyl)acetamide] | 26.3 min |  | 
4-(3-aminopropyl)-9-fluoro-1-thioxo-2,4-dihydro-[1,2,4]triazolo[4,3-a]quinazolin-5(1H)-one [compound 69] | >30 min |  | 
O=C(Cc1ccc(O)cc1)NCCCn1c(=O)c2cc(F)ccc2n2c(=S)[nH]nc12 [compound 127, N-(3-(7-fluoro-5-oxo-1-thioxo-1,2-dihydro-[1,2,4]triazolo[4,3-a]quinazolin-4(5H)-yl)propyl)-2-(4-hydroxyphenyl)acetamide] | >30 min | 31.0 µg/mL | 
